# Measurements from article PMC8854719, “Phase 1A/1B dose-escalation and -expansion study to evaluate the safety, pharmacokinetics, food effects and antitumor activity of pamiparib in advanced solid tumours” (British Journal of Cancer, 2021).
# Like-named read-outs stand apart in the source and are kept apart here.
# Experiments:
# [1] = Plasma pharmacokinetics of pamiparib (LC-MS/MS, non-compartmental); design: species or system human; conditions: in vivo; for AUC(0-inf): AUC0-inf; for Vd/F: Vz/F
# Description: Patients in the dose-escalation phase received a single oral dose of pamiparib on day 1 of cycle 1 to collect samples for single-dose PK assessment over 48 h, followed by continuous daily doses (BID and QD) starting on day 3 of cycle 1 as a 21-day period of repeated drug administration (days 3–23), and then continued every 21-day cycle thereafter until disease progression, toxicity, or patient withdrawal. Eight BID dose levels (2.5, 5, 10, 20, 40, 60, 80, 120 mg) were administered (Fig. 1). After completion of BID dose-escalation, alternative dosing regimens of 120 and 160 mg QD were selected for exploration based on the total daily dose equivalent to the RP2D (60 mg BID) and MTD (80 mg BID), respectively. The QD dosing regimen was added as an amendment to the protocol with the purpose of exploring the feasibility of a more convenient regimen. During the dose-expansion phase, patients received pamiparib 60 mg BID (RP2D from BID dose-escalation phase) continuously from day 1 of cycle 1.
# Pamiparib in plasma was measured using a validated liquid chromatography-tandem–mass spectrometry assay with a lower limit of quantification of 1.0 ng/mL. The collection schedule for blood samples used to assess the PK profile is presented in the Supplemental Appendix. Summary PK parameters, including area under the concentration-time curve from time 0 to 9 h (AUC0-9) or infinity (AUC0-inf), maximal plasma concentration (Cmax) and time to maximal plasma concentration (Tmax), were estimated. The pharmacodynamic (PD) activity of pamiparib was explored through the evaluation of poly(ADP-ribose [PAR]) formation in peripheral blood mononuclear cells (PBMCs) after pamiparib administration. The schedule for blood sample collection (PK and PBMCs) and additional assessment information for PAR levels in PBMCs and pharmacodynamic activity is presented in the Supplemental Appendix. Antitumor activity was assessed by radiographic imaging (computed tomography or magnetic resonance imaging) during screening, within 28 days of first pamiparib dose, every 6 weeks in the first 12 months and every 9 weeks thereafter.
# Descriptive statistics were used to summarise all study data (see Supplemental Appendix). Progression-free survival (PFS) and event-free rates were estimated using the Kaplan–Meier method along with the corresponding 95% CI. Pharmacokinetic parameters were derived using standard non-compartmental methods with Phoenix WinNonlin Version 6.4 or higher (Pharsight Corp., Mountain View, California).
# The PK profile of pamiparib was assessed based on blood samples collected at predose and 0.5, 1, 2, 4, 6, 9, 24, and 48 hours postdose on Days 1-3 and then at predose and 0.5, 1, 2, 4, 6, and 9 hours postdose on Day 17 of Cycle 1 in Phase 1A. Sparse PK samples were collected in phase 1B Part A. The food effect on the PK of pamiparib was assessed based on blood samples collected at predose and 0.5, 1, 2, 4, 7, 24, and 48 hours postdose on Day 1 and Day 6 of Cycle 1 in phase 1B Part B.
# [2] = design: method as in PMID 33128299; conditions: humans; current study and Phase 1 study in ovarian cancer; cited from earlier work
# [3] = human, 2.5 mg, Single Dose (Cycle 1 Day 1)
# [4] = human, 5 mg, Single Dose (Cycle 1 Day 1)
# [5] = human, 10 mg, Single Dose (Cycle 1 Day 1)
# [6] = human, 20 mg, Single Dose (Cycle 1 Day 1)
# [7] = human, 40 mg, Single Dose (Cycle 1 Day 1)
# [8] = human, 60 mg, Single Dose (Cycle 1 Day 1)
# [9] = human, 80 mg, Single Dose (Cycle 1 Day 1)
# [10] = human, 120 mg, Single Dose (Cycle 1 Day 1)
# [11] = human, 160 mg, Single Dose (Cycle 1 Day 1)
compound,measurement,setting,value
C[C@]12CCCN1CC1=NNC(=O)c3cc(F)cc4[nH]c2c1c34 [pamiparib],"Dose proportionality, AUC0-inf (h*ng/mL): Intercept (95% CI)",[1]; human,5.97 (5.36-6.57)
same,"Dose proportionality, AUC0-inf (h*ng/mL): Slope (95% CI)",[1]; human,1.04 (0.88-1.20)
same,"Dose proportionality, Cmax (ng/mL): Intercept (95% CI)",[1]; human,3.66 (3.34-3.99)
same,"Dose proportionality, Cmax (ng/mL): Slope (95% CI)",[1]; human,0.96 (0.87-1.04)
same,"Accumulation Ratio, AUC0-9","[1]; human, 2.5 mg",2.42
same,"Accumulation Ratio, Cmax","[1]; human, 2.5 mg",2.44
same,"CL/F, Single Dose (Cycle 1 Day 1)","[1]; human, 2.5 mg",4265.3 (34.8) mL/hr
same,"t1/2, Single Dose (Cycle 1 Day 1)","[1]; human, 2.5 mg","12.03 (7.08, 33.87) hr"
same,AUC(0-t),"[1]; human, 2.5 mg, AUC0-9, Single Dose (Cycle 1 Day 1)",385 ng·h/mL
same,AUC(0-t),"[1]; human, 2.5 mg, AUC0-9, Steady State (Cycle 1 Day 17)",931 ng·h/mL
same,AUC(0-inf),[1]; [3],586 ng·h/mL
same,Cmax,[1]; [3],74.5 ng/mL
same,Cmax,"[1]; human, 2.5 mg, Steady State (Cycle 1 Day 17)",182 ng/mL
same,Vd/F,[1]; [3],52.4 L
same,"Accumulation Ratio, AUC0-9","[1]; human, 5 mg",1.93
same,"Accumulation Ratio, Cmax","[1]; human, 5 mg",2.09
same,"CL/F, Single Dose (Cycle 1 Day 1)","[1]; human, 5 mg",2056.9 (49.5) mL/hr
same,AUC(0-t),"[1]; human, 5 mg, AUC0-9, Single Dose (Cycle 1 Day 1)",1100 ng·h/mL
same,AUC(0-t),"[1]; human, 5 mg, AUC0-9, Steady State (Cycle 1 Day 17)",2120 ng·h/mL
same,AUC(0-inf),[1]; [4],2430 ng·h/mL
same,Cmax,[1]; [4],193 ng/mL
same,Cmax,"[1]; human, 5 mg, Steady State (Cycle 1 Day 17)",404 ng/mL
same,Tmax,"[1]; human, 5 mg, Tmax, Steady State (Cycle 1 Day 17)",0.53 h
same,Vd/F,[1]; [4],32.7 L
same,half-life,"[1]; human, 5 mg, t1/2, Single Dose (Cycle 1 Day 1)",11 h
same,"Accumulation Ratio, AUC0-9","[1]; human, 10 mg",1.68
same,"Accumulation Ratio, Cmax","[1]; human, 10 mg",1.59
same,"CL/F, Single Dose (Cycle 1 Day 1)","[1]; human, 10 mg",1359.2 (35.9) mL/hr
same,AUC(0-t),"[1]; human, 10 mg, AUC0-9, Single Dose (Cycle 1 Day 1)",2580 ng·h/mL
same,AUC(0-t),"[1]; human, 10 mg, AUC0-9, Steady State (Cycle 1 Day 17)",4330 ng·h/mL
same,AUC(0-inf),[1]; [5],7360 ng·h/mL
same,Cmax,[1]; [5],412 ng/mL
same,Cmax,"[1]; human, 10 mg, Steady State (Cycle 1 Day 17)",657 ng/mL
same,Tmax,"[1]; human, 10 mg, Tmax, Steady State (Cycle 1 Day 17)",1.05 h
same,Vd/F,[1]; [5],27.6 L
same,half-life,"[1]; human, 10 mg, t1/2, Single Dose (Cycle 1 Day 1)",14.1 h
same,"AUC0-9, Single Dose (Cycle 1 Day 1)","[1]; human, 20 mg",4134.9 (29.9) ng/ml*hr
same,"Accumulation Ratio, AUC0-9","[1]; human, 20 mg",1.82
same,"Accumulation Ratio, Cmax","[1]; human, 20 mg",1.62
same,"CL/F, Single Dose (Cycle 1 Day 1)","[1]; human, 20 mg",2550.4 (58.7) mL/hr
same,"Cmax, Steady State (Cycle 1 Day 17)","[1]; human, 20 mg",1267.6 (19.9) ng/ml
same,AUC(0-t),"[1]; human, 20 mg, AUC0-9, Steady State (Cycle 1 Day 17)",7510 ng·h/mL
same,AUC(0-inf),[1]; [6],7840 ng·h/mL
same,Cmax,[1]; [6],783 ng/mL
same,Tmax,"[1]; human, 20 mg, Tmax, Single Dose (Cycle 1 Day 1)",0.53 h
same,Vd/F,[1]; [6],31.4 L
same,half-life,"[1]; human, 20 mg, t1/2, Single Dose (Cycle 1 Day 1)",8.53 h
same,"Accumulation Ratio, AUC0-9","[1]; human, 40 mg",1.86
same,"Accumulation Ratio, Cmax","[1]; human, 40 mg",1.60
same,"CL/F, Single Dose (Cycle 1 Day 1)","[1]; human, 40 mg",1826.6 (85.8) mL/hr
same,"t1/2, Single Dose (Cycle 1 Day 1)","[1]; human, 40 mg","11.76 (6.24, 24.37) hr"
same,AUC(0-t),"[1]; human, 40 mg, AUC0-9, Single Dose (Cycle 1 Day 1)",8950 ng·h/mL
same,AUC(0-t),"[1]; human, 40 mg, AUC0-9, Steady State (Cycle 1 Day 17)",18300 ng·h/mL
same,AUC(0-inf),[1]; [7],21900 ng·h/mL
same,Cmax,[1]; [7],1750 ng/mL
same,Cmax,"[1]; human, 40 mg, Steady State (Cycle 1 Day 17)",2940 ng/mL
same,Tmax,"[1]; human, 40 mg, Tmax, Steady State (Cycle 1 Day 17)",1.5 h
same,Vd/F,[1]; [7],31 L
same,"AUC0-9, Single Dose (Cycle 1 Day 1)","[1]; human, 60 mg",10403.7 (29.2) ng/ml*hr
same,"CL/F, Single Dose (Cycle 1 Day 1)","[1]; human, 60 mg",1874.7 (55.4) mL/hr
same,Geometric mean half-life,"[1]; human, 60 mg",13.5 h
same,"t1/2, Single Dose (Cycle 1 Day 1)","[1]; human, 60 mg","13.50 (7.14, 24.61) hr"
same,AUC(0-t),"[1]; human, 60 mg, AUC0-9, Steady State (Cycle 1 Day 17)",25200 ng·h/mL
same,AUC(0-inf),[1]; [8],32000 ng·h/mL
same,Cmax,[1]; [8],1880 ng/mL
same,Cmax,"[1]; human, 60 mg, Steady State (Cycle 1 Day 17)",3830 ng/mL
same,Vd/F,[1]; [8],36.5 L
same,"Accumulation Ratio, AUC0-9","[1]; human, 80 mg",2.07
same,"Accumulation Ratio, Cmax","[1]; human, 80 mg",1.96
same,"CL/F, Single Dose (Cycle 1 Day 1)","[1]; human, 80 mg",2786.6 (56.0) mL/hr
same,"Cmax, Single Dose (Cycle 1 Day 1)","[1]; human, 80 mg",2317.8 (43.0) ng/ml
same,AUC(0-t),"[1]; human, 80 mg, AUC0-9, Single Dose (Cycle 1 Day 1)",13200 ng·h/mL
same,AUC(0-t),"[1]; human, 80 mg, AUC0-9, Steady State (Cycle 1 Day 17)",25300 ng·h/mL
same,AUC(0-inf),[1]; [9],28700 ng·h/mL
same,Cmax,"[1]; human, 80 mg, Steady State (Cycle 1 Day 17)",4350 ng/mL
same,Tmax,"[1]; human, 80 mg, Tmax, Single Dose (Cycle 1 Day 1)",1.98 h
same,Tmax,"[1]; human, 80 mg, Tmax, Steady State (Cycle 1 Day 17)",1.08 h
same,Vd/F,[1]; [9],38.5 L
same,half-life,"[1]; human, 80 mg, t1/2, Single Dose (Cycle 1 Day 1)",9.58 h
same,"AUC0-9, Steady State (Cycle 1 Day 17)","[1]; human, 120 mg",36558.4 (32.4) ng/ml*hr
same,"AUC0-inf, Single Dose (Cycle 1 Day 1)","[1]; human, 120 mg",68952.9 (43.3) ng/ml*hr
same,"Cmax, Single Dose (Cycle 1 Day 1)","[1]; human, 120 mg",3752.8 (41.1) ng/ml
same,"Cmax, Steady State (Cycle 1 Day 17)","[1]; human, 120 mg",6059.1 (27.7) ng/ml
same,"Vz/F, Single Dose (Cycle 1 Day 1)","[1]; human, 120 mg",31373.9 (13.9) mL
same,"t1/2, Single Dose (Cycle 1 Day 1)","[1]; human, 120 mg","14.29 (9.83, 30.30) hr"
same,AUC(0-t),"[1]; human, 120 mg, AUC0-9, Single Dose (Cycle 1 Day 1)",21100 ng·h/mL
same,AUC(0-t),"[1]; human, 120 mg, AUC0-9, Steady State (Cycle 1 Day 17)",26900 ng·h/mL
same,AUC(0-inf),[1]; [10],52000 ng·h/mL
same,Cmax,[1]; [10],3590 ng/mL
same,Cmax,"[1]; human, 120 mg, Steady State (Cycle 1 Day 17)",4530 ng/mL
same,Tmax,"[1]; human, 120 mg, Tmax, Single Dose (Cycle 1 Day 1)",1.95 h
same,Vd/F,[1]; [10],36.3 L
same,half-life,"[1]; human, 120 mg, t1/2, Single Dose (Cycle 1 Day 1)",10.9 h
same,"Accumulation Ratio, AUC0-9","[1]; human, 160 mg",1.47
same,"Accumulation Ratio, Cmax","[1]; human, 160 mg",1.27
same,"CL/F, Single Dose (Cycle 1 Day 1)","[1]; human, 160 mg",1569.1 (44.8) mL/hr
same,AUC(0-t),"[1]; human, 160 mg, AUC0-9, Single Dose (Cycle 1 Day 1)",31800 ng·h/mL
same,AUC(0-t),"[1]; human, 160 mg, AUC0-9, Steady State (Cycle 1 Day 17)",45300 ng·h/mL
same,AUC(0-inf),[1]; [11],102000 ng·h/mL
same,Cmax,[1]; [11],5340 ng/mL
same,Cmax,"[1]; human, 160 mg, Steady State (Cycle 1 Day 17)",6870 ng/mL
same,Vd/F,[1]; [11],34.5 L
same,half-life,"[1]; human, 160 mg, t1/2, Single Dose (Cycle 1 Day 1)",15.2 h
same,half-life,"[1]; human, Mean terminal half-life",~13 h
same,Tmax,"[1]; human, Median Tmax",1 to 2 h
same,Tmax,"[1]; human, BID 2.5 mg, N 4, read-out: Tmax, Steady State (Cycle 1 Day 17)",0.54 h
same,AUC0-9,"[1]; human, QD 120 mg, N 8, read-out: AUC0-9, Single Dose (Cycle 1 Day 1)",21700 ng·h/mL
same,Exposure (Cmax and AUC0-inf) versus dose,[1],dose-proportional increase
same,Bioavailability,[2],"high, with near-complete absorption"
